Reference: ChEMBL document CHEMBL5108067, “Discovery of Potent OTUB1/USP8 Dual Inhibitors Targeting Proteostasis in Non-Small-Cell Lung Cancer” (J Med Chem, 2022)
Calls of active or inactive are those of the source. No cut-off for these calls is given here.

How the values were obtained:
[1] = Volume of distribution at steady state in ICR mouse at 1 mg/kg, iv measured upto 1440 mins by LC-MS/MS analysis; type: ADME, organism-based; settings: in vivo, 24 h
[2] = Half life in ICR mouse at 10 mg/kg, po measured upto 1440 mins by LC-MS/MS analysis; type: ADME, organism-based; settings: in vivo
[3] = AUC in ICR mouse at 10 mg/kg, po measured upto 1440 mins by LC-MS/MS analysis; type: ADME, organism-based; parameters: time < 1440 min, dose 10 mg/kg, route po; settings: in vivo
[4] = molecular target: T1, Ubiquitin carboxyl-terminal hydrolase 2 (Homo sapiens, UniProt O75604); experiment: Inhibition of USP2 (unknown origin) using Ub-Rho measured after 0.5 to 3 hrs
T1 sequence (O75604 whole entry): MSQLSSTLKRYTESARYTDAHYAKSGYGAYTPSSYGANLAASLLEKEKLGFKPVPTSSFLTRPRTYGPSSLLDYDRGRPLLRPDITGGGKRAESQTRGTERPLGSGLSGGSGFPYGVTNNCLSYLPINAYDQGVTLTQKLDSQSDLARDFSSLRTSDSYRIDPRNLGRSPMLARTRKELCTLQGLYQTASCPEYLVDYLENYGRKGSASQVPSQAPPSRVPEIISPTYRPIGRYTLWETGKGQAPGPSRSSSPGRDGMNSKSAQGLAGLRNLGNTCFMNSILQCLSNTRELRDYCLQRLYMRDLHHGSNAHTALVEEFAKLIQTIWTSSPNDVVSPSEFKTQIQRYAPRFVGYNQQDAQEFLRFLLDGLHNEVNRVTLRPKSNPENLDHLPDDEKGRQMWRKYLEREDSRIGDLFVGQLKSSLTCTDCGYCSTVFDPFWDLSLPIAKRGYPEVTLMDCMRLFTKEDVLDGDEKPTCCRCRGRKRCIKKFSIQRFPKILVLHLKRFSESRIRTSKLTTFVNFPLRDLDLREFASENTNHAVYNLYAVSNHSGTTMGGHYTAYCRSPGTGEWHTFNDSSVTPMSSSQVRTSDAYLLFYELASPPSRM

[5] = AUC in ICR mouse at 1 mg/kg, iv measured upto 1440 mins by LC-MS/MS analysis; type: ADME, organism-based; parameters: time < 1440 min, dose 1 mg/kg, route iv; settings: in vivo, 24 h
[6] = Tmax in ICR mouse at 10 mg/kg, po measured upto 1440 mins by LC-MS/MS analysis; type: ADME, organism-based; settings: in vivo
[7] = molecular target: T2, Ubiquitin thioesterase OTUB1 (Homo sapiens, UniProt Q96FW1); experiment: Inhibition of OTUB1 in human NCI-H1975 cells assessed as reduction in UBE2N protein level at 500 nM measured for 24 hrs by immunoblotting analysis; type: cell-based
T2 sequence (Q96FW1 whole entry): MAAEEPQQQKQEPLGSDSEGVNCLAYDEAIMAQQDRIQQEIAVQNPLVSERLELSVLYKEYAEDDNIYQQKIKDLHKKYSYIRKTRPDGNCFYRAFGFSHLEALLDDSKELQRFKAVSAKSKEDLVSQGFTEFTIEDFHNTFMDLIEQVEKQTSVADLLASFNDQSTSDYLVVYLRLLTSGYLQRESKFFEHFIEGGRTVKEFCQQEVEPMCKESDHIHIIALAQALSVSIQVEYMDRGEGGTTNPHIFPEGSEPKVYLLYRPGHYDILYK

[8] = molecular target: T3, Ubiquitin carboxyl-terminal hydrolase 8 (Homo sapiens) (UniProt P40818); experiment: Inhibition of USP8 in human NCI-H1975 cells assessed as reduction in EGFR protein level at 500 nM measured for 24 hrs by immunoblotting analysis; type: cell-based
T3 sequence (whole entry): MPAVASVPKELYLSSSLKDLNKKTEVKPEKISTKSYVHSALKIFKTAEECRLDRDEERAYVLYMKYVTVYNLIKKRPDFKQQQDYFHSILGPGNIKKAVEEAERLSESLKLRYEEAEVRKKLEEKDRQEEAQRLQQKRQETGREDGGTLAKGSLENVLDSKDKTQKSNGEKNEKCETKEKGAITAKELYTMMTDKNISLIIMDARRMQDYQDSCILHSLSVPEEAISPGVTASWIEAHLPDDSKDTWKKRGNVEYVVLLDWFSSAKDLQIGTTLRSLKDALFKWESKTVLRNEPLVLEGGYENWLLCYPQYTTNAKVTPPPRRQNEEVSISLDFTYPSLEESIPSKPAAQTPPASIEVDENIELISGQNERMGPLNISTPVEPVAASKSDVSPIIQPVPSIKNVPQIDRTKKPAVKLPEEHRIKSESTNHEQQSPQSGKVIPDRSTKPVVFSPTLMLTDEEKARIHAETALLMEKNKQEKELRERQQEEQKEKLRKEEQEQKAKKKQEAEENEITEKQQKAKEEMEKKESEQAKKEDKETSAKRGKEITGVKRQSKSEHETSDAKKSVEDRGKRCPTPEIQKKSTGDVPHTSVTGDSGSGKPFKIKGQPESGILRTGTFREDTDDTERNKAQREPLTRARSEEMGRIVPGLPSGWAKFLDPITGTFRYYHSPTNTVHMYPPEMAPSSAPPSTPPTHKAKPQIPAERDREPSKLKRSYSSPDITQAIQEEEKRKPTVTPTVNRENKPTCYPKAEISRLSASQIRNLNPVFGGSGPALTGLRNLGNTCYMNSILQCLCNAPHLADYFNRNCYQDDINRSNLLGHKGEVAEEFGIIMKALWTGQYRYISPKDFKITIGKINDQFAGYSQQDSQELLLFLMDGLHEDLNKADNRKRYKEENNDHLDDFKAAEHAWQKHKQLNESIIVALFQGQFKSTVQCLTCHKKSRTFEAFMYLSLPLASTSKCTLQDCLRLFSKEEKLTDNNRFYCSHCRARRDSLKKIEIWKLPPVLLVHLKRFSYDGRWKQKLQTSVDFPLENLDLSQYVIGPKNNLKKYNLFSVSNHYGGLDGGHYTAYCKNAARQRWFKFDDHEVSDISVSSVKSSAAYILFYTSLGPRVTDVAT

[9] = Oral bioavailability in ICR mouse at 10 mg/kg measured upto 1440 mins by LC-MS/MS analysis; type: ADME, organism-based; settings: in vivo
[10] = Half life in ICR mouse at 1 mg/kg, iv measured upto 1440 mins by LC-MS/MS analysis; type: ADME, organism-based; settings: in vivo, 24 h
[11] = Cmax in ICR mouse at 10 mg/kg, po measured upto 1440 mins by LC-MS/MS analysis; type: ADME, organism-based; parameters: dose 10 mg/kg, time < 1440 min, route po; settings: in vivo
[12] = molecular target: T3, Ubiquitin carboxyl-terminal hydrolase 8 (Homo sapiens); experiment: Inhibition of USP8 in human NCI-H1975 cells assessed as reduction in protein level at 500 nM measured for 24 hrs by immunoblotting analysis; type: cell-based
[13] = molecular target: T2, Ubiquitin thioesterase OTUB1; experiment: Inhibition of OTUB1 in human NCI-H1975 cells assessed as reduction in protein level at 500 nM measured for 24 hrs by immunoblotting analysis; type: cell-based
[14] = test system: Mus musculus; experiment: In vivo inhibition of USP8 in NCI-H1975 cells xenografted BALB/c nude mouse model assessed as decrease in EGFR level at 15 mg/kg/day, po measured after 5 days by Western blot analysis; type: functional, organism-based; settings: time 5.0 day
[15] = test system: Mus musculus; experiment: In vivo inhibition of OTUB1 in human NCI-H1975 cells xenografted BALB/c nude mouse model assessed as decrease in OTUB1 level at 15 mg/kg/day, po measured after 5 days by Western blot analysis; type: functional, organism-based; settings: time 5.0 day
[16] = test system: NCI-H1975; experiment: Antitumor activity against human NCI-H1975 cells xenografted in BALB/c nude mouse model assessed as reduction of tumor burden at 5 mg/kg, ip qd for 2 weeks; type: functional, organism-based
[17] = test system: Mus musculus; experiment: In vivo inhibition of OTUB1 in NCI-H1975 cells xenografted BALB/c nude mouse model assessed as decrease in UBE2N level at 15 mg/kg/day, po measured after 5 days by Western blot analysis; type: functional, organism-based; settings: time 5.0 day

Vdss [1] [L/kg] | half-life [2] [min] | AUC at 24 h [3] [ng·h/mL] | IC50 [4] [µM] | AUC [5] [ng·h/mL] | Tmax [6] [min] | inhibition [7] | inhibition [8] | bioavailability [9] [%] | t1/2 [10] [min] | Cmax [11] [ng/mL] | inhibition [12] | inhibition [13] | SMILES | Activity [14] | Activity [15] | Activity [16] | Activity [17]
2.37 | 86.4 | 229 | 6.2 | 306 | 19.8 | Active | Active | 7.5 | 51.6 | 313 | – | – | CN1CC[C@@H](Oc2ccc(Cl)c(-c3nc4c(o3)C(=O)c3ccccc3C4=O)c2)C1 | – | – | – | –
– | – | – | > 10 | – | – | – | – | – | – | – | – | – | CN1CC[C@@H](Oc2ccc(Cl)c(-c3nc4c(o3)C(=O)c3ccccc3C4=O)c2F)C1 | – | – | – | –
– | – | – | 5.1 | – | – | – | – | – | – | – | – | – | O=C1c2ccccc2C(=O)c2oc(-c3cccnc3)nc21 | – | – | – | –
0.77 | 105 | 3750 | 3.8 | 1345 | 19.8 | Active | Active | 27.9 | 49.8 | 4270 | Active | Active | CN1CC[C@@H](Oc2ccc(F)c(-c3nc4c(o3)C(=O)c3ccccc3C4=O)c2Cl)C1 | Active | Active | Active | Active
